Values of other authors in patent US20050037366A1, “Individual drug safety” (priority 2003, published 2005).
Entries after “also recorded” stand apart in the source; their conditions may differ. Each block holds one molecule with its values, some of them ahead of it.

Columns and labels:
[1] = rats
[2] = in vivo
[3] = target: T1, ABCC2 (MRP2, cMOAT) (Rattus norvegicus, UniProt Q63120); settings: rats; ABCC2-mediated mechanisms
T1 construct: host or cells: rats (in vivo, liver canalicular membrane)

[4] = system: Bsep (ABCB 11)
[5] = men with hormone-refractory prostate cancer

T1 sequence (Q63120 whole entry): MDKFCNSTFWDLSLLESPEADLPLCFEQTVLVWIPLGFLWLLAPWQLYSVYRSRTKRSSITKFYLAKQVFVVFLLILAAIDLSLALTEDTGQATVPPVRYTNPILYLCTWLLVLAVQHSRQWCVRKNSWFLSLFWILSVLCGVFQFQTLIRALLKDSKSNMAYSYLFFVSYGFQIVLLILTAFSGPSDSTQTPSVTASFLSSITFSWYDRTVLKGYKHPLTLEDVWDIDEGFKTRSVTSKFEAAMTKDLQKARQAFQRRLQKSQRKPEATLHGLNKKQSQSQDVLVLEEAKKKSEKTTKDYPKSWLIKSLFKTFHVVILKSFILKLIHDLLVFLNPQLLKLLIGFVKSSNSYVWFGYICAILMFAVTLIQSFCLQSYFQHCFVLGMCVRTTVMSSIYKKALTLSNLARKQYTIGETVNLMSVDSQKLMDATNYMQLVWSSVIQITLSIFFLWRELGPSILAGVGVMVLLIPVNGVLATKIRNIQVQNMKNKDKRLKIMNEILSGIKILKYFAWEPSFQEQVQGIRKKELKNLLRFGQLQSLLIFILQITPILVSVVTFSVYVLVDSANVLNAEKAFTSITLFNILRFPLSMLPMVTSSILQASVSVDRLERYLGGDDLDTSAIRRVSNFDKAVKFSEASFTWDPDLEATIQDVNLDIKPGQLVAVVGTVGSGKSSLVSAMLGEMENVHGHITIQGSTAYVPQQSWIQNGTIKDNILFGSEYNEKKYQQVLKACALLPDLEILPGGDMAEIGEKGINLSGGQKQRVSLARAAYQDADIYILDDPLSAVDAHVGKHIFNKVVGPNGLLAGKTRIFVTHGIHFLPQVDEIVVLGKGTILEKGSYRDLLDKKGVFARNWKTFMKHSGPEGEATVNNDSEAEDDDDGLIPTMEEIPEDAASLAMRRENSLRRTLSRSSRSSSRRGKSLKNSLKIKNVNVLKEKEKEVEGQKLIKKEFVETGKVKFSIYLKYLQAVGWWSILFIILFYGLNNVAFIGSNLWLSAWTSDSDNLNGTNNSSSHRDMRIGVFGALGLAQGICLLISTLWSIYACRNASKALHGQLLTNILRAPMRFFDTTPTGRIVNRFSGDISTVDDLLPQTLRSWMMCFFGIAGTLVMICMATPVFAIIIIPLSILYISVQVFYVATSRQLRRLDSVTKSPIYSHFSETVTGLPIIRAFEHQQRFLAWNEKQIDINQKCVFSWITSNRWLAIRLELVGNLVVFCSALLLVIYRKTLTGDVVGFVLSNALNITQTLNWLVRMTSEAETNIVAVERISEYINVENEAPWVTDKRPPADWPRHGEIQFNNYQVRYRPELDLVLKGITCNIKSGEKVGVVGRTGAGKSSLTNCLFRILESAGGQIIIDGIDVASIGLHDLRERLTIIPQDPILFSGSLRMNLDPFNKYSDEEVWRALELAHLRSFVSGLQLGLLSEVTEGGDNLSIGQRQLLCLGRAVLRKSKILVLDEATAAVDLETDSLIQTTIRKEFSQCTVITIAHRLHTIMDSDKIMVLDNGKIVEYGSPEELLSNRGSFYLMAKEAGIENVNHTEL

cerebral blood flow [1]: decrease of cerebral blood flow
SMILES: CCCC[C@@H](NC(=O)[C@@H](Cc1cn(C(=O)OC)c2ccccc12)NC(=O)[C@H](CC(C)(C)C)NC(=O)N1[C@H](C)CCC[C@@H]1C)C(=O)O [BQ-788]

canalicular bile formation [3]: alters canalicular bile formation
SMILES: COc1ccccc1Oc1c(NS(=O)(=O)c2ccc(C(C)(C)C)cc2)nc(-c2ncccn2)nc1OCCO [Bosentan]
ADR: liver injury [2]: can lead to liver injury; also recorded: can induce cholestatic liver injury
effect on Bsep-mediated canalicular bile salt transport [4]: inhibition of Bsep-mediated canalicular bile salt transport

ADRs in phase II study [5]: headache, peripheral edema and rhinitis
SMILES: CCCCN(CCCC)C(=O)CN1C[C@H](c2ccc3c(c2)OCO3)[C@@H](C(=O)O)[C@@H]1c1ccc(OC)cc1 [Atrasentan]
